The values below come from US6214821A, “Methods and composition for the inhibition of cancer cells” (Washington State University Research Foundation, priority 1999, dated 2001).

Read-outs that look alike come from different tables or passages of the source.

The subject of data set [1] is GI 101A cells. Description: cells. The data set is classed as cell-based, human. The conditions noted are these: Homo sapiens, 24 h. The source says:
(§1) . Cell lines and Culture.
(§2) Drugs and Chemical Reagents. […] . […] All other chemicals were reagent grade.
(§3) Drug Treatment and Survival Curves.
(§4) Pharmacol. 28:370-376 (1991). […] .
(§5) Drug Combinations and Data Analysis. […] . Pharmacol. (in press, 1997). […] Enzyme Regul. […] Enzyme Regul. 22:27-55 (1984).
(§6) . […] Enzyme Regul. 22:27-55 (1984).

Data set [2] concerns MDA-231 cells. Description: cells. Type of data set: cell-based, human. The conditions noted are these: Homo sapiens.
Text: as §1, §2, §3, §4, §5, §6

Data set [3] has as its system GI 101A cells. Description: Flow cytometric cell cycle analysis (propidium iodide). Type of data set: cell-based, human. The conditions noted are these: 100 nM CPT, 24 h.
Data set [4] has as its system MDA-231 cells. The description is as above. The data set is classed as cell-based, human. The conditions noted are these: 100 nM CPT, 24 h.
The subject of data set [5] is normal endothelial cells (BVEC). The description is as above. The data set is classed as cell-based, bovine. As to conditions: 100 nM CPT, 24 h.
Data set [6] deals with normal bovine venular endothelial cells (BVEC). Description: cells. The conditions noted are these: Bos taurus, Endothelial cell, 24 h, read-out: dose inhibiting growth by 50% (CPT alone).
The subject of data set [7] is GI 101A cells. As to conditions: cited from earlier work.
For data set [8], the system named is MDA-231 cells. The conditions noted are these: cited from earlier work.
The next data set deals with p34^cdc2 in HeLa cells. The conditions noted are these: CPT treatment; cited from earlier work.
Another data set deals with CPT-resistant cells. As to conditions: low doses of CPT; cited from earlier work.
A further data set concerns CPT-sensitive cells. As to conditions: very high doses of CPT; cited from earlier work.
The next data set can be described thus: in vivo. As to conditions: rat, iv, 10 mg/kg.
In the next data set the test system is HMEC/E6 (p53-). Kind of data set: Crystal violet staining growth inhibition assay, median effect analysis. The data set is classed as cell-based. As to conditions: Homo sapiens, 24 hr treatment. The source says: Cytotoxicity and Bromodeoxyuridine incorporation assays. […] Enzyme Regul.
The test system of data set [9] is MDA-231 cells. Kind of data set: ELISA BrdU incorporation assay (DNA synthesis). Type of data set: cell-based, human. As to conditions: TPT 10 and 50 nM, 24 hr.
The test system of data set [10] is MDA-231 cells. Kind of data set: FACS cell cycle / BrdU DNA synthesis assay. Type of data set: cell-based, human. The conditions noted are these: TPT 10, 50, 100 nM, 24 h, FIG. 8A.
Data set [11] deals with murine bone marrow cells (CFU-GM). Description: In vitro bone marrow cell protection assay (CFU-GM colonies). Type of data set: cell-based, C57/BL mice. The conditions noted are these: Mus musculus, 0-1000 nM, combination 1:1 molar ratio.
For data set [12] the following is noted: basic side-chain at position 9 forms salts with acids; cited from earlier work.
Another data set has as its system HMEC (p53+). Description: Crystal violet staining growth inhibition assay, median effect analysis. As to conditions: Homo sapiens, 24 h, read-out: IC50 HMEC (p53+).
Another data set concerns MDA-231 (mutant p53). Described as above. As to conditions: Homo sapiens, MDA-MB-231, 24 h, read-out: IC50 MDA-231 (p53-).
Data set [13] deals with DNA damage-dependent G2 -checkpoint. The conditions noted are these: cited from earlier work.

As to `CC[C@@]1(O)C(=O)OCc2c1cc1n(c2=O)Cc2cc3ccccc3nc2-1` [CPT, Camptothecin], the IC50 was 300 nM in the data set on GI 101A cells [1] (read-out: 50% inhibition of cell growth (CPT alone)); 104 nM in the data set on GI 101A cells [1] (read-out: median-effect dose, Dm, for CPT); 200 nM with MDA-231 cells [2] (MDA-MB-231, 24 h, read-out: 50% inhibition of cell growth (CPT alone)); 28 nM in the data set on MDA-231 cells [2] (MDA-MB-231, 24 h, read-out: median-effect dose, Dm, for CPT); 5 nM in the data set on MDA-231 cells [2] (MDA-MB-231, read-out: IC50 of CPT in the absence of UCN-01 (so in the source)); more than 1000 nM in [6]. Also, the “cell cycle effect of CPT alone” value (in the data set on GI 101A cells [3]; with MDA-231 cells [4]; in data set [5]) was “caused an arrest of tumor as well as normal cells in S phase” each time. Also, the “cell cycle effect of CPT at low and high doses” value in the data set with GI 101A cells [7] and in the data set with MDA-231 cells [8] was “in the G2 phase while at high doses cells are arrested in the S phase” throughout. The p34cdc2 activity result with p34^cdc2 in HeLa cells is reported as “loss in activity of p34^cdc2 in HeLa cells”. Also, the values for the 3H-thymidine incorporation entry with CPT-resistant cells and in the data set on CPT-sensitive cells were “stopped incorporating ^3 H-thymidine” and “continued to incorporate ^3 H-thymidine”, respectively. The half-life in “in vivo” (in vivo) was determined as 1.42 h.

Take `CC[C@@]1(O)C(=O)OCc2c1cc1n(c2=O)Cc2cc3c(CN(C)C)c(O)ccc3nc2-1` [TPT, (S)-10[(dimethylamino)methyl]-4-ethyl-4,9-dihydroxy-IH-pyrano[3',4': 6,7]ind olizino[1,2-b]quinolone-3,14(4H,12H)-dione]: the IC50 in the data set on HMEC/E6 (p53-) worked out at 34 nM; in data set [11] it was 19 nM; in the data set on HMEC (p53+), 6 nM; in the data set on MDA-231 (mutant p53) it was 37 nM. Also, in the data set with MDA-231 cells [9], the BrdU incorporation result is on record as “stopped incorporating BrdU”. The “cell cycle effect of TPT by itself” value in the data set on MDA-231 cells [10] was “induced an accumulation of MDA-231 cells in S phase”. In [12], the water solubility entry was “water-soluble”. The molecule further gave a half-life in the data set “in vivo” (plasma) of 1.53 h.

With `Cn1c(=O)c2c(ncn2C)n(C)c1=O` [caffeine], the “effect on DNA damage-dependent G2 checkpoint” value in [13] is “override the DNA damage-dependent G2 -checkpoint and enhance drug-induced cytotoxicity”.
